According to paper PMC8931335 (Proceedings of the National Academy of Sciences of the …, 2022):

Target: T1, MOR42-3 (Mus musculus, UniProt E9PX47)
T1 sequence (E9PX47 1-334): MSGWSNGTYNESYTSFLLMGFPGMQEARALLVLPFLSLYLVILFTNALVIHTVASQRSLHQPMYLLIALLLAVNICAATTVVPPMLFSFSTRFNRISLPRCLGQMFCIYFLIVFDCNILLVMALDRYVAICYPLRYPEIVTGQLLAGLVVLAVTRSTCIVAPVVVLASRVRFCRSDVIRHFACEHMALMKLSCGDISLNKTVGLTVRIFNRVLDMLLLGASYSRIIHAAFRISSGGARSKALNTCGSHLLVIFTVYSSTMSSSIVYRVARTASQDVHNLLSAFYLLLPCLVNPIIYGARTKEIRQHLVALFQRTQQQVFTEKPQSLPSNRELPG
Assay: CRE luciferase reporter assay in Hana3A cells
Type: cell-based

EC50: 29.4 ± 12.8 µM
Compound: O=C(O)CCCCCCCC(=O)O [NA]
